The values below come from EP0316592A2, “3'-Fluoro-2',3'-dideoxyuridine, and its therapeutic application” (Stichting REGA V.Z.W., priority 1987, dated 1989).

The structures appear in SMILES notation. Values joined by “and” are separate entries in the source; they are usually repeats but may differ in a detail not shown here. Identical values can stand only once. Like-named read-outs stand apart in the source and are kept apart here.

One test deals with HIV. The test is described as follows: Inhibition of HIV-induced cytopathogenicity in MT4 cells. In kind it is cell-based. The note with it: for EC50: 50% reduction in the cytopathic effect of HIV for MT4 cells, 5 days, read-out: HIV-induced cyto-pathogenicity ED50; for HIV-induced cyto-pathogenicity S.I.: Selectivity index or ratio of CD50 to ED50, MT4 cells. The procedure:
HTLV-IIIB (designated HIV) was derived from a pool of American patients with AIDS, and obtained from the supernatant of HIV-infected H9 cell cultures (see M. Popovic et al, Science 224, 497-500 (1984)).
FddUrd, the unsubstituted analogue and other 3′-fluoro- and 3′-azido-substituted analogues were evaluated for their inhibitory effects on HIV-induced cytopathogenicity in MT4 cells (Table 1, fig. 2).

In the next test the target is T1, Molt/4F dThd kinase (Homo sapiens, UniProt P04183).
T1 construct: endogenous in cells; host or cells: Molt/4F cells (sonicated extract, 30-70% ammonium sulfate fraction, dialyzed)
T1 sequence (P04183 1-234): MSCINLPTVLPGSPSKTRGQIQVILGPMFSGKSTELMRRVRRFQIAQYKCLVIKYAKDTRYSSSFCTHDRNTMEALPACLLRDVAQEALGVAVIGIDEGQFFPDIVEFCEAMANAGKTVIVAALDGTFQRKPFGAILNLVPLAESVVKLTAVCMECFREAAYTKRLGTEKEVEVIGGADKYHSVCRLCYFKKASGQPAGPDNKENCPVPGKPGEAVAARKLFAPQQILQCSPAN
The test can be described thus: Inhibition of dThd kinase (Lineweaver-Burk). In kind it is biochemical. Particulars: for Ki: substrate (2-14C)dThd; for Type of inhibition: with respect to dThd; for inhibitory activity against dThd kinase (in words): at a concentration as high as 750 µM or 1000 µM. As for the experimental part: (§1) ddUrd and the 3′-fluoro- and 3′-azido-substituted pyrimidine 2′,3′-dideoxynucleoside analogues were evaluated for their inhibitory effect against dThd and dCyd kinase.
(§2) dThd kinase and dCyd kinase were prepared from exponen tially growing Molt/4F cells, which were first washed (2x) with phosphate-buffered saline at 4° and then homogenized by sonication. The suspensions were clarified by centrifugation at 25,000-27,000 x g for 30 min. The 30-70% (NH₄)₂SO₄ precipitate of the supernatant was resuspended in buffer containing 10 uM potassium phosphate, pH 7.5, 10 mM β-mercaptoethanol and 0.1 M KCl, dialyzed against the same buffer, and used for the dThd kinase and the dCyd kinase assays. In these experiments, (2-¹⁴C)dThd and (U-¹⁴C)dCyd served as the radiolabelled substrates. The apparent Km and Ki values were derived from Lineweaver-Burk plots, using a linear regression analysis program.

Test [1] deals with T2, bacterial thymidine phosphorylase (Escherichia coli, UniProt P07650).
T2 construct: purchased Sigma Chemical Co., St. Louis, MO
T2 sequence (P07650 whole entry): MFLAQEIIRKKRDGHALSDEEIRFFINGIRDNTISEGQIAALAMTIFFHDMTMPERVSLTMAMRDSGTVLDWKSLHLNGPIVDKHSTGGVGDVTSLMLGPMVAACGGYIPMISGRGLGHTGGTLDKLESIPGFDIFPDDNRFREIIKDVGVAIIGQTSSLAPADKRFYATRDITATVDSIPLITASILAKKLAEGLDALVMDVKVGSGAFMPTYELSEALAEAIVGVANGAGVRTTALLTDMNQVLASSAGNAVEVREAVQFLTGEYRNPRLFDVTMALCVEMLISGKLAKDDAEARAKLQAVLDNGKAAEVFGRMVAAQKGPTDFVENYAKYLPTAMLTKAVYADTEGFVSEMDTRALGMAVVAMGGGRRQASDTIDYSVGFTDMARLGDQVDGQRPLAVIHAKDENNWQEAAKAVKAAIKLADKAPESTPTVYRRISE
The test can be described thus: Phosphorolytic cleavage by dThd phosphorylase. In kind it is biochemical. Particulars: for susceptibility to phosphorolysis by dThd phosphorylase (in words): purified bacterial dThd phosphorylase; for Initial velocity of phosphorolysis: 25°C, 0.1 M sodium phosphate buffer, pH 7.0, N.D. = not detectable with 25 units of enzyme. As for the experimental part: Phosphorolytic cleavage of the test compounds was assessed using purified bacterial dThd phosphorylase (Sigma Chemical Co., St. Louis, MO) with the aid of a Beckman spectrophotometer UV/Vis 5200; the absorbance change during the enzyme reaction was continuously monitored at 25°C at the wavelength where the difference of absorption between the nucleoside and its free base was maximal. The reaction mixtures for all the assays consisted of enzyme and non-satura ting concentrations of nucleoside in 0.1 M sodium phosphate buffer, pH 7.0. The initial velocity of phosphorolysis was expressed as nmol/min/enzyme unit.

The next test addresses T3, Molt/4F dCyd kinase (Homo sapiens, UniProt P27707).
T3 construct: endogenous in cells; host or cells: Molt/4F cells (sonicated extract, 30-70% ammonium sulfate fraction, dialyzed)
The test is described as follows: Inhibition of dCyd kinase (Lineweaver-Burk). Particulars: for Type of inhibition: with respect to dCyd. In kind it is biochemical. As for the experimental part:
as §1
as §2, with “program. The assay procedures have been described in detail (J. Balzarini et al, (1983) and J. Balzarini et al, Biochem. Pharmacol. 31, 3673-3682 (1982)).” for “program.”

Test [2] has as its system human B- and T-cell lines. The test can be described thus: Cytostatic effect, pooled over several cell lines. In kind it is cell-based. The note with it: for IC50: read-out: ID50 (the source's name). The procedure:
All assays were performed in flat bottom Microtest III Plates (96 wells) (Falcon) as previously described by E. De […] et al (Mol. Pharmacol. 19, 321-330 (1981)). Briefly, the cells were suspended in growth medium and added to the microplate wells at a density of 7.5 x 10^4 cells/well (200 μ1) in the presence of varying concentrations of the test compounds. The cells were then allowed to proliferate for 68-72 hours at 37°C in a humidified, CO2-controlled atmosphere. At the end of the incubation period, the cells were counted with a Coulter Counter (Coulter Electronics Ltd., Harpenden Herts, U.K.).

Where [3] appears, read: Human immunodeficiency virus 1, MT4, 120 h.
Where [4] appears, read: Homo sapiens, CEM and Molt/4F cells, range over both compounds and both cell lines.
Setting [5] is: Homo sapiens, Raji cells, range over both compounds.

T3 sequence (P27707 whole entry): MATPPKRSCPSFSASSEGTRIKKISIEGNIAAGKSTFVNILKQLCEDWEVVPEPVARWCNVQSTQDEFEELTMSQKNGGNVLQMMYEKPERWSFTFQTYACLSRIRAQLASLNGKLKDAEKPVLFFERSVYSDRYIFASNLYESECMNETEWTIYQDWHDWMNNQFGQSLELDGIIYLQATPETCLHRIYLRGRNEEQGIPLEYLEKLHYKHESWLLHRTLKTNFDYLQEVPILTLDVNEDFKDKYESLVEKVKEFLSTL

`CCc1cn([C@H]2C[C@H](N=[N+]=[N-])[C@@H](CO)O2)c(=O)[nH]c1=O` [AzddEtUrd, 3′-azido-2′,3′-dideoxy-5-ethyluridine]: in the test with HIV, the EC50 was found to be 64 µM and the “HIV-induced cyto-pathogenicity S.I.” value was found to be 6.5. Also, the EC50 in the test with HIV (setting [3]) is over 64 µM. In addition, on Molt/4F dThd kinase (dThd kinase), affinity was put at a Ki of 175 µM and the Type of inhibition result was “competitive”. The compound also had a Ki/Km at Molt/4F dThd kinase (dThd kinase, Km 2.5 to 6.6 µM) of 28. Besides, in test [1], the “susceptibility to phosphorolysis by dThd phosphorylase (in words)” value (“susceptibility to phosphorolysis” for short) is “no phosphorolytic cleavage whatsoever”.
For `[N-]=[N+]=N[C@H]1C[C@H](n2ccc(=O)[nH]c2=O)O[C@@H]1CO` [AzddUrd, 3′-azido-2′,3′-dideoxyuridine], in the test with HIV, the “fold more effective against HIV replication than the parent compound ddUrd” value came to 600 fold and the “HIV-induced cyto-pathogenicity S.I.” value is listed as 677. The EC50 with HIV (Human immunodeficiency virus 1, 120 h) was 0.36 µM. At Molt/4F dThd kinase, the Ki/Km was found to be 71. Further, at Molt/4F dThd kinase (dThd kinase), the Ki was found to be 224 µM and the Type of inhibition entry is “competitive”.
In the case of `Nc1ccn([C@H]2C[C@H](F)[C@@H](CO)O2)c(=O)n1` [FddCyd, 3′-fluoro-2′,3′-dideoxycytidine], in the test with HIV (setting [3]), the EC50 was found to be 16 µM. For the same compound, the “HIV-induced cyto-pathogenicity S.I.” value in the test on HIV is 1.6. This compound also had a Ki/Km at Molt/4F dCyd kinase (Km 5.2 to 6.4 µM) of 63. Moreover, affinity on Molt/4F dCyd kinase (substrate (U-14C)dCyd) was put at a Ki of 360 µM. At Molt/4F dCyd kinase, the Type of inhibition entry is reported as “competitive”. Moreover, the “susceptibility to phosphorolysis” value in test [1] is “totally resistant”. For the same compound, the figures for the IC50 in test [2] (setting [4]) and in test [2] (setting [5]) were 6 to 24 µM and 23 to 95 µM, respectively.
Regarding `CCc1cn([C@H]2C[C@H](F)[C@@H](CO)O2)c(=O)[nH]c1=O` [FddEtUrd, 3′-fluoro-2′,3′-dideoxy-5-ethyluridine], in the test with HIV, the EC50 is 330 µM and the “HIV-induced cyto-pathogenicity S.I.” value is given as over 1.9. On Molt/4F dThd kinase (dThd kinase), the Ki was 266 µM and the Type of inhibition entry is on record as “competitive”. Moreover, the Ki/Km at Molt/4F dThd kinase (dThd kinase, Km 2.5 to 6.6 µM) was 72. The “susceptibility to phosphorolysis” value in test [1] is “no phosphorolytic cleavage whatsoever”.
For `O=c1ccn([C@H]2C[C@H](F)[C@@H](CO)O2)c(=O)[nH]1` [FddUrd, 3′-fluoro-2′,3′-dideoxyuridine], in the test on HIV, the “fold more effective against HIV replication than the parent compound ddUrd” value stood at 5000 fold; the “fold more potent/effective against HIV than AzddUrd” value is 9 fold and 10 fold; the “HIV-induced cyto-pathogenicity S.I.” value is given as 400. For the same compound, in the test on HIV (setting [3]), the EC50 came out at 0.04 µM. Further, at Molt/4F dThd kinase (dThd kinase), affinity was put at a Ki of 833 µM and the Type of inhibition entry is recorded as “competitive”. This compound showed a Ki/Km at Molt/4F dThd kinase (dThd kinase, Km 2.5 to 6.6 µM) of 171. In addition, the “Initial velocity of phosphorolysis” value in test [1] is on record as 0.018 nmol/min/unit. The “fold higher susceptibility of CEM cells to the cytostatic action than the other cell lines” value in test [2] (CEM versus other cell lines) worked out at 70 fold. For the same compound, the IC50 in test [2] (the other cell lines (all but CEM)) is given as over 1000 µM.
Turning to `Nc1ccn([C@H]2CC[C@@H](CO)O2)c(=O)n1` [ddCyd, 2′,3′-Dideoxycytidine], the EC50 with HIV (setting [3]) stood at 0.3 µM. Further, the “HIV-induced cyto-pathogenicity S.I.” value in the test with HIV was 120. Besides, on Molt/4F dCyd kinase, the Type of inhibition entry is “competitive”. Besides, the “susceptibility to phosphorolysis” value in test [1] was “totally resistant”. In addition, the IC50 lay in the range of 6 to 24 µM in test [2] (setting [4]) and 23 to 95 µM in test [2] (setting [5]).
As to `CCc1cn([C@H]2CC[C@@H](CO)O2)c(=O)[nH]c1=O` [ddEtUrd, 2′,3′-Dideoxy-5-ethyluridine], the EC50 in the test on HIV is over 625 µM. Moreover, on Molt/4F dThd kinase, the “inhibitory activity against dThd kinase (in words)” value was “no inhibitory activity”. The Ki on Molt/4F dThd kinase (dThd kinase) is over 750 µM. This compound also registered a Ki/Km at Molt/4F dThd kinase (dThd kinase, Km 2.5 to 6.6 µM) of over 200. For the same compound, the “susceptibility to phosphorolysis” value in test [1] is on record as “no phosphorolytic cleavage whatsoever”.
Take `O=c1ccn([C@H]2CC[C@@H](CO)O2)c(=O)[nH]1` [ddUrd, 2′-3′-dideoxyuridine]: in the test on HIV, the EC50 is 210 µM and the “HIV-induced cyto-pathogenicity S.I.” value is over 3. Also, the EC50 with HIV (setting [3]) is over 64 µM. Also, on Molt/4F dThd kinase, the Ki/Km is given as over 250 and the “inhibitory activity against dThd kinase (in words)” value was “no inhibitory activity”. On Molt/4F dThd kinase (dThd kinase), the Ki was over 1000 µM. Also, the “Initial velocity of phosphorolysis” value in test [1] is listed as 0.270 nmol/min/unit.
